{
  "source": "ChEMBL document CHEMBL1126592",
  "about": "“Bicyclic compounds as ring-constrained inhibitors of protein-tyrosine kinase p56lck” (J Med Chem, 1993)",
  "data": [
    {"target": "Tyrosine-protein kinase Lck (Homo sapiens, UniProt P06239)", "sequence (P06239 whole entry)": "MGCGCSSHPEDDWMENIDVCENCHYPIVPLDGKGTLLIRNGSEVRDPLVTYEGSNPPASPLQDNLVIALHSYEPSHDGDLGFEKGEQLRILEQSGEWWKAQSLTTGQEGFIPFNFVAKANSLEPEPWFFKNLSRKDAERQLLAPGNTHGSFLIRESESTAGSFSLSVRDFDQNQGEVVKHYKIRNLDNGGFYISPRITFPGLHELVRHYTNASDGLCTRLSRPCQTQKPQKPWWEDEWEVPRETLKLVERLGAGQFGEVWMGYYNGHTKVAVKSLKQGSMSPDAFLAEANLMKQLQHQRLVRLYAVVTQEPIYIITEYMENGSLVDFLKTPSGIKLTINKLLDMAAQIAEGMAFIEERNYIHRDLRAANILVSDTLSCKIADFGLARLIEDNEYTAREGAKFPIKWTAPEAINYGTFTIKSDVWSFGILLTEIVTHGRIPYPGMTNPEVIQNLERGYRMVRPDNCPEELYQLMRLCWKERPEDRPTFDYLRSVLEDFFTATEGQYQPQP", "test": "Ability to inhibit autophosphorylation of immunopurified p56Ick", "units": {"IC50": "µM"}, "values": [
      {"smiles": "N=c1oc2cc(O)c(O)cc2cc1C(N)=O", "IC50": "> 2000"},
      {"smiles": "N=c1oc2c(O)c(O)ccc2cc1C(N)=O", "IC50": 750},
      {"smiles": "N#C/C(=C\\c1cc(O)c(O)c(O)c1)C(N)=O", "IC50": 2000},
      {"smiles": "NC(=O)c1cnc2cc(O)c(O)cc2c1", "IC50": 610},
      {"smiles": "N=c1oc2ccccc2cc1C(N)=O", "IC50": 1500},
      {"smiles": "N=c1oc2cc(O)ccc2cc1C(N)=O", "IC50": "> 2000"},
      {"smiles": "N#C/C(=C\\c1cccc(O)c1)C(N)=O", "IC50": 1500},
      {"smiles": "N=c1oc2c(O)cccc2cc1C(N)=O", "IC50": 100},
      {"smiles": "COC(=O)c1ccc2c(O)c(O)ccc2c1", "IC50": 25},
      {"smiles": "N#C/C(=C\\c1ccc(O)c(O)c1)C(N)=O", "IC50": 22},
      {"smiles": "N#C/C(=C\\c1ccc(O)cc1)C(N)=O", "IC50": 1000},
      {"smiles": "N#C/C(=C\\c1cc(O)cc(O)c1)C(N)=O", "IC50": 500},
      {"smiles": "NC(=O)c1ccc2cc(O)c(O)cc2c1", "IC50": 26},
      {"smiles": "COC(=O)c1cc2ccc(O)c(O)c2cn1", "IC50": 0.2},
      {"smiles": "N=c1oc2ccc(O)cc2cc1C(N)=O", "IC50": 100}
    ]}
  ]
}
